Each molecule was assayed against GST-p53 DNA binding domain (aa 92-aa 312) (Homo sapiens, UniProt P04637) (assay: Scintillation Proximity Assay (SPA), displacement of 3H STANDARD COMPOUND). Details: 1 h, 2 ug/mL of drug; exact values; number in brackets = number of determinations averaged; read-out: SPA ASSAY % Residual T @ 2 ug/mL of drug (Average of).
Text: Most of the oncogenic mutants of the tumor suppressor protein p53 lack sequence specific DNA binding activity at physiological temperature due to conformational changes in the DNA binding domain. Small molecules and peptide which bind to the p53 DNA binding domain stabilize the conformation and restore DNA binding activity to mutant p53 protein (Science 286, 2507-2510, 1999; PNAS, 99, 937-942, 2002). Using ^3H STANDARD COMPOUND (structure shown below; carbon atom with * is the atom labelled), [drawing 1366] a radio labeled small molecule which binds to p53, and the GST-p53 DNA binding domain (aa 92-aa 312), we have developed a quantitative screening assay. The assay is based on Scintillation Proximity Assay (SPA) technology, developed by Amersham Biosciences to measure molecular interactions. Briefly, the complex of GST-p53, ^3H STANDARD and Glutathione-SPA beads (Amersham Biosciences) are incubated with mixing for 1 hr at room temperature in the presence of the novel compounds to be screened. The signal is read on Microbeta. The compounds which have the ability to displace ^3H STANDARD COMPOUND are selected. Such molecules will stabilize the conformation and restore DNA binding activity to mutant p53 protein.
The above assay was used to determine the ability of the compounds of this invention to directly bind to p53 core and restore DNA binding activity to mutant p53 and the results for selected compounds have been given above in various tables.
A letter rating corresponding to % Residual total binding (T) @ 2 ug/mL of drug (i.e., compound of the present invention) from this assay have been assigned as follows: Compounds having % Residual T values of from 0% to less than 20% have been assigned the letter “A”. Compounds having % Residual T values of from 20% to less than 40% have been assigned the letter “B”. Compounds having % Residual T values of from 40% to less than 80% have been assigned the letter “C”. Compounds having % Residual T values of 80% or higher have been assigned the letter “D”. The exact % Residual T values @ 2 ug/mL for some illustrative compounds are shown below: […]

Sequence of GST-p53 DNA binding domain (aa 92-aa 312) (P04637 92-312): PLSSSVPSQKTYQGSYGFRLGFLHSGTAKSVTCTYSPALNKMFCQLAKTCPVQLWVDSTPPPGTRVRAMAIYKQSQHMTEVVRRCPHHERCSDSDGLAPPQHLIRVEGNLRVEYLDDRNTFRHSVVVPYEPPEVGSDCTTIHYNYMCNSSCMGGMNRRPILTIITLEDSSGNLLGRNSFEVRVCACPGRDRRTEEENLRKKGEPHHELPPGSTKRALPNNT

Row | SMILES | remaining activity at 2 µg/mL [%]
1 | CN(C)CCCNc1nc(CN(C)Cc2cccc3cc[nH]c23)nc2ccccc12 [38-33] | 25.7
2 | Cc1c(CN(C)Cc2nc(NCCCN(C)C)c3ccccc3n2)sc2ccccc12 [38-56] | 23.6
3 | CC(C)C1CCC(N(C)Cc2nc(NCCCN(C)C)c3ccccc3n2)CC1 (stereo not shown) [38-81] | 13.5
4 | CN(C)CCCNc1nc(CN(C)C2CCC3CCCCC3C2)nc2ccccc12 (stereo not shown) [38-83] | 28.7
5 | CN(C)CCCNc1nc(CN(C)C2CCC(C(C)(C)C)CC2)nc2ccccc12 (stereo not shown) [38-84] | 7.8
6 | CN(C)CCCNc1nc(CN(C)C2CCC3(CC2)OCCO3)nc2ccccc12 [38-85] | 23
7 | CCC(C)(C)C1CCC(N(C)Cc2nc(NCCCN(C)C)c3ccccc3n2)CC1 (stereo not shown) [38-88] | 6.3
8 | CN(C)CCCNc1nc(CN(C)C2CCC(c3ccccc3)CC2)nc2ccccc12 (stereo not shown) [38-89] | 21
9 | CN(C)CCCNc1nc(CN(C)C2CCC(C#N)(c3ccccc3)CC2)nc2ccccc12 (stereo not shown) [38-90] | 5.5
10 | CN(C)CCCNc1nc(CN(C)C2CCN(C(=O)c3ccccc3)CC2)nc2ccccc12 [38-91] | 20.7
11 | COc1ccc(/C=C/c2nc(NCCCN(C)C)c3ccccc3n2)cc1 [CP-31398, reference compound] | 61.3
12 | CN(Cc1ccccc1)Cc1nc2ccccc2c(=O)[nH]1 [PE-17] | 36.8
13 | CN(C)CCCNc1nc(CN(C)Cc2ccccc2)nc2ccccc12 [PE-19] | 22.2

Same assay, conditions: 1 h, 2 ug/mL of drug; letter rating; Examples 41 table; read-out: SPA ASSAY % Residual T @ 2 ug/mL of drug (Average of)

Row | SMILES | remaining activity at 2 µg/mL [%]
14 | COc1ccc(Cl)cc1NC(=O)N(C)Cc1nc(NCCCN(C)C)c2ccccc2n1 [41-30] | 40 to 80

Same assay, conditions: 1 h, 2 ug/mL of drug; letter rating; number in brackets = number of determinations averaged; read-out: SPA ASSAY % Residual T @ 2 ug/mL of drug (Average of)

Row | SMILES | remaining activity at 2 µg/mL [%]
15 | CC(C)CCN(C)Cc1nc(NCCCN(C)C)c2ccccc2n1 [38-1] | 20 to 40
16 | CCC(C)CN(C)Cc1nc(NCCCN(C)C)c2ccccc2n1 (stereo not shown) [38-2] | 40 to 80
17 | CN(C)CCCNc1nc(CN(C)Cc2ccco2)nc2ccccc12 [38-3] | 40 to 80
18 | CN(C)CCCNc1nc(CN(C)Cc2ccoc2)nc2ccccc12 [38-4] | 40 to 80
19 | CN(C)CCCNc1nc(CN(C)Cc2cccs2)nc2ccccc12 [38-8] | ≥ 80
20 | CN(C)CCCNc1nc(CN(C)Cc2nccs2)nc2ccccc12 [38-10] | 20 to 40
21 | CN(C)CCCNc1nc(CN(C)Cc2cccc(F)c2)nc2ccccc12 [38-16] | ≥ 80
22 | CN(C)CCCNc1nc(CN(C)Cc2ccccc2C#N)nc2ccccc12 [38-18] | 40 to 80
23 | CN(C)CCCNc1nc(CN(C)Cc2cccc(C#N)c2)nc2ccccc12 [38-19] | 40 to 80
24 | CN(C)CCCNc1nc(CN(C)Cc2ccc(C#N)cc2)nc2ccccc12 [38-20] | 40 to 80
25 | CN(C)CCCNc1nc(CN(C)C/C=C/c2ccccc2)nc2ccccc12 [38-21] | ≥ 80
26 | Cc1cccc(C)c1CN(C)Cc1nc(NCCCN(C)C)c2ccccc2n1 [38-24] | ≥ 80
27 | COc1ccc(CN(C)Cc2nc(NCCCN(C)C)c3ccccc3n2)cc1 [38-27] | 40 to 80
28 | CN(C)CCCNc1nc(CN(C)Cc2ccc(Cl)cc2)nc2ccccc12 [38-30] | 40 to 80
29 | CN(C)CCCNc1nc(CN(C)Cc2c(F)cccc2F)nc2ccccc12 [38-31] | 40 to 80
30 | CCOC(=O)C1CC1CN(C)Cc1nc(NCCCN(C)C)c2ccccc2n1 (stereo not shown) [38-32] | 40 to 80
31 | CN(C)CCCNc1nc(CN(C)Cc2cccc3cc[nH]c23)nc2ccccc12 [38-33] | 20 to 40
32 | CN(C)CCCNc1nc(CN(C)Cc2cc3ccccc3o2)nc2ccccc12 [38-34] | 40 to 80
33 | CC(CCN(C)Cc1nc(NCCCN(C)C)c2ccccc2n1)c1ccccc1 (stereo not shown) [38-35] | ≥ 80
34 | CN(C)CCCNc1nc(CN(C)Cc2ccccc2C(=O)O)nc2ccccc12 [38-36] | ≥ 80
35 | CN(C)CCCNc1nc(CN(C)Cc2cccc3c2OCO3)nc2ccccc12 [38-37] | 40 to 80
36 | CN(C)CCCNc1nc(CN(C)Cc2cccc3ccccc23)nc2ccccc12 [38-41] | 40 to 80
37 | CN(C)CCCNc1nc(CN(C)Cc2ccc3ccccc3c2)nc2ccccc12 [38-42] | 40 to 80
38 | COC(=O)c1ccc(CN(C)Cc2nc(NCCCN(C)C)c3ccccc3n2)cc1 [38-46] | 40 to 80
39 | CN(C)CCCNc1nc(CN(C)Cc2cccc(C(F)(F)F)c2)nc2ccccc12 [38-48] | 40 to 80
40 | CN(C)CCCNc1nc(CN(C)Cc2cccc(Cl)c2Cl)nc2ccccc12 [38-50] | ≥ 80

Row | SMILES | remaining activity at 2 µg/mL [%]
41 | CN(C)CCCNc1nc(CN(C)Cc2cc(Cl)ccc2Cl)nc2ccccc12 [38-52] | 40 to 80
42 | Cc1c(CN(C)Cc2nc(NCCCN(C)C)c3ccccc3n2)sc2ccccc12 [38-56] | 20 to 40
43 | CN(C)CCCNc1nc(CN(C)Cc2ccccc2OCC(=O)O)nc2ccccc12 [38-57] | ≥ 80
44 | CN(C)CCCNc1nc(CN(C)Cc2ccc(-c3ccccc3)cc2)nc2ccccc12 [38-59] | ≥ 80
45 | CN(C)CCCNc1nc(CN(C)Cc2ccc(Oc3ccccc3)cc2)nc2ccccc12 [38-64] | 40 to 80
46 | CN(C)CCCNc1nc(CN(C)Cc2ccc(C#Cc3ccccc3)cc2)nc2ccccc12 [38-65] | ≥ 80
47 | CN(C)CCCNc1nc(CN(C)Cc2cccn2S(=O)(=O)c2ccccc2)nc2ccccc12 [38-66] | 40 to 80
48 | CN(C)CCCNc1nc(CN(C)Cc2ccccc2Sc2ccc(Cl)cc2)nc2ccccc12 [38-67] | 40 to 80
49 | CN(C)CCCNc1nc(CN(C)C2CCC2)nc2ccccc12 [38-68] | ≥ 80
50 | CN(C)CCCNc1nc(CN(C)C2CCCCC2)nc2ccccc12 [38-72] | 40 to 80
51 | CN(C)CCCNc1nc(CN(C)C2CCSC2)nc2ccccc12 (stereo not shown) [38-74] | 40 to 80
52 | CN(C)CCCNc1nc(CN(C)C2C[C@@H]3CC[C@H]2C3)nc2ccccc12 (stereo partly shown) [38-75] | ≥ 80
53 | CC1CCC(N(C)Cc2nc(NCCCN(C)C)c3ccccc3n2)CC1 (stereo not shown) [38-77] | 40 to 80
54 | CC(C)C1CCC(N(C)Cc2nc(NCCCN(C)C)c3ccccc3n2)CC1 (stereo not shown) [38-81] | 0 to 20
55 | CC(=O)N1CCC(N(C)Cc2nc(NCCCN(C)C)c3ccccc3n2)CC1 [38-82] | 40 to 80
56 | CN(C)CCCNc1nc(CN(C)C2CCC3CCCCC3C2)nc2ccccc12 (stereo not shown) [38-83] | 20 to 40
57 | CN(C)CCCNc1nc(CN(C)C2CCC(C(C)(C)C)CC2)nc2ccccc12 (stereo not shown) [38-84] | 0 to 20
58 | CN(C)CCCNc1nc(CN(C)C2CCC3(CC2)OCCO3)nc2ccccc12 [38-85] | 20 to 40
59 | CN(C)CCCNc1nc(CN(C)C2CCCC(C(F)(F)F)C2)nc2ccccc12 (stereo not shown) [38-86] | 40 to 80
60 | CN(C)CCCNc1nc(CN(C)C2CCC(C(F)(F)F)CC2)nc2ccccc12 (stereo not shown) [38-87] | 40 to 80
61 | CCC(C)(C)C1CCC(N(C)Cc2nc(NCCCN(C)C)c3ccccc3n2)CC1 (stereo not shown) [38-88] | 0 to 20
62 | CN(C)CCCNc1nc(CN(C)C2CCC(c3ccccc3)CC2)nc2ccccc12 (stereo not shown) [38-89] | 20 to 40
63 | CN(C)CCCNc1nc(CN(C)C2CCC(C#N)(c3ccccc3)CC2)nc2ccccc12 (stereo not shown) [38-90] | 0 to 20
64 | CN(C)CCCNc1nc(CN(C)C2CCN(C(=O)c3ccccc3)CC2)nc2ccccc12 [38-91] | 20 to 40
65 | CN(C)CCCNc1nc(CN(C)CC2CCCCC2)nc2ccccc12 [38-93] | 40 to 80

Same assay, conditions: 1 h, 2 ug/mL of drug; residual total binding of 3H STANDARD COMPOUND; lower is better; read-out: SPA ASSAY % Residual T @ 2 ug/mL of drug (Average of)

Row | SMILES | remaining activity at 2 µg/mL [%]
66 | COC(=O)[C@@H](Nc1nc(CNC(=O)Nc2ccccc2C(F)(F)F)nc2ccccc12)C(C)C [34-36] | 40 to 80
67 | COC(=O)[C@@H](Nc1nc(CNC(=O)Nc2ccc(Cl)c(Cl)c2)nc2ccccc12)C(C)C [34-39] | 40 to 80
68 | COC(=O)[C@@H](Nc1nc(CNC(=O)Nc2cc(Cl)cc(Cl)c2)nc2ccccc12)C(C)C [34-40] | 40 to 80
69 | COC(=O)[C@@H](Nc1nc(CNC(=O)Nc2ccccc2-c2ccccc2)nc2ccccc12)C(C)C [34-41] | 40 to 80
70 | COC(=O)[C@@H](Nc1nc(CNC(=O)Nc2cccc(Br)c2)nc2ccccc12)C(C)C [34-42] | 40 to 80

— patent publication US20070015774A1, “Quinazoline derivatives useful in cancer treatment” (Schering Corporation, priority 2005, published 2007)
